From US9228175B2, “Genes encoding a novel type of lysophophatidylcholine acyltransferases and their use to increase triacylglycerol production and/or modify fatty acid composition” (National Research Counsel of Canada, priority 2006, dated 2016)

Legend:
Format in all cases: biochemical
LCA1 = target: T1, LCA1 (Saccharomyces cerevisiae, UniProt Q08548); assay: Zn^2+ / Mg^2+ effect on LPCAT activity of LCA1 (in vitro assay, microsomes of lca1Δ over-expressing LCA1); settings: for LPCAT activity (% control): 5.6 μM palmitoyl-LPC, 11.25 μM stearyl-CoA, 1.5 μg microsomal protein, pH 7.4, two minutes, mean±S.D.
T1 construct: Saccharomyces cerevisiae YOR175c ORF was PCR-amplified; made in house; host or cells: S. cerevisiae YOR175c deletion strain Y02431 (lca1Δ), pYES2.1, galactose induction; microsomal fraction
T1 sequence (Q08548 1-619): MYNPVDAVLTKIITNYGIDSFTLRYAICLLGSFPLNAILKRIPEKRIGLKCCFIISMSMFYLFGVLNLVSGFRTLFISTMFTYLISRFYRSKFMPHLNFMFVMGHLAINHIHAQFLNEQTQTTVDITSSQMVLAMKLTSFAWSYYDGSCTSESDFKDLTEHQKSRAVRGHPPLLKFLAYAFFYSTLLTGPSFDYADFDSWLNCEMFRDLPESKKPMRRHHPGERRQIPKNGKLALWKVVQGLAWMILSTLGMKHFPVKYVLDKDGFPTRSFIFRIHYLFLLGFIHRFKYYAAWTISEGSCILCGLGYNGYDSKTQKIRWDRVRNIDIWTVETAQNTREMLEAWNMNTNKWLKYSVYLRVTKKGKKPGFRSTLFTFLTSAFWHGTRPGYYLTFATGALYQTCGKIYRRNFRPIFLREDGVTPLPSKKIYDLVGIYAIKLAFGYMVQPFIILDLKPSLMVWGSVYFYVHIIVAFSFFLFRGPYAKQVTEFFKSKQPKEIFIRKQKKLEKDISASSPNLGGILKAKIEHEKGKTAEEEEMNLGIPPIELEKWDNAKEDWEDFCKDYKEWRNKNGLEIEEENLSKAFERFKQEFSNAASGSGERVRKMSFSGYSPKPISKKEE
Method: Microsomal preparation: Yeast strains were first grown in 15 ml of SC-Leu-His-Ura medium containing 2% glucose. Protein expression induction was carried out as described in Invitrogen manufacturer manual for yeast expression vector pYES2.1. After 24 hours of growth in SC+2% galactose+1% raffinose induction conditions, the cells were washed, first with distilled water and then with wall-breaking buffer (50 mM Tris-HCl, 1 mM EDTA, 0.6 M sorbitol, pH 7.4, 1 mM DTT). After centrifugation at 4,000 rpm (Eppendorf Centrifuge 5145C), the cells were resuspended in 1 ml wall-breaking buffer with 10 μl yeast protease cocktail (Sigma), and shaken vigorously in the presence of acid-washed glass beads (diameter 0.5 mm). The resultant homogenate was centrifuged at 12,000 rpm for ten minutes at 4° C. The decanted supernatant was further centrifuged at 100,000×g for 90-120 minutes at 4° C. The supernatant was discarded, and the pellet was suspended in homogenization buffer containing 20% glycerol and frozen at −80° C. until use. Protein concentration was measured using Bio-Rad Protein Assay Kit for final enzyme activity calculation.
In Vitro Assay of LPCAT activity: LPCAT substrate specificity was determined by measuring incorporation of [^14C] lysophosphatidylcholine or [^14C] palmitoyl-CoA into phosphatidylcholine. All assays were performed at least twice. For lysophospholipid substrate specificity assessment, 400 μl HEPES buffer contained 3 μg microsomal protein, 50 μM of lysophospholipid substrates and 112.5 μM [^14C] palmitoyl-CoA (5.5 nCi/nmol). For acyl-CoA substrate selectivity analysis, 400 μl HEPES reaction buffer (pH7.4, 0.1 M) contained 3 μg microsomal protein, 50 μM acyl-CoA and 112.5 μM [^14C] […] (1.35 nCi/nmol). Reaction was allowed for 2 minutes at 30° C. with 100 rpm shaking. The reaction products were extracted with chloroform/methanol (2/1, v/v) and separated with Merck silica G60 TLC plates. Spots corresponding to different phospholipid species products were scraped off and ^14C incorporation were scintillation counted. Different concentrations of ZnCl2 were added in to reactions for Zn^2+ inhibitory effect assay.
Results are expressed as means±S.D. The lca1Δ over-expressing LCA1 was used to assess Zn^2+ effect. The reactions contained 5.6 μM palmitoyl-LPC (1.35 nCi/nmol), 1.5 μg microsomal proteins, 0.1 M HEPES (pH 7.4), 11.25 μM stearyl-CoA and indicated concentration of ZnCl2. The reaction was stopped after two minutes by adding 2 ml of chloroform/methanol solution (2:1).

AtLPCAT1 = target: T2, AtLPCAT1 (Arabidopsis thaliana, UniProt F4IDU4); assay: Zn^2+ sensitivity of AtLPCAT1, in vitro LPCAT assay; settings: increasing ZnCl2; 25 μM palmitoyl-LPC, 25 μM stearyl-CoA, 20 μg microsomal protein, pH 7.4
T2 construct: made in house; host or cells: S. cerevisiae YOR175c deletion strain BY02431 (lca1Δ), pYES2.1 TOPO, galactose induction; microsomal protein
T2 sequence (F4IDU4 1-462): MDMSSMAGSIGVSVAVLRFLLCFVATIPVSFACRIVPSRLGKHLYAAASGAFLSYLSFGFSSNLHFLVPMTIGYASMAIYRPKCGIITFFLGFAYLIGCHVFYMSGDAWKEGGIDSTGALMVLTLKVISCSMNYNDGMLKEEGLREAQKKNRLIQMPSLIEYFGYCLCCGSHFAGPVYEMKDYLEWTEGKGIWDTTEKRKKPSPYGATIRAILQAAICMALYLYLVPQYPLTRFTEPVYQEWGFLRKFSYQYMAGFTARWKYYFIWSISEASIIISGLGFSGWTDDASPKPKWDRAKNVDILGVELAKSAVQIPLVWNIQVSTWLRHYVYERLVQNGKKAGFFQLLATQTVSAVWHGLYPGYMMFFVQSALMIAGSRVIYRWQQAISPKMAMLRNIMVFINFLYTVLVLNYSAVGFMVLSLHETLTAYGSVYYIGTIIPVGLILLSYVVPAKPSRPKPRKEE
Method: (§1) FIG. 19 is a graph depicting the inhibitory effect of Zn^2+ on AtLPCATs activity. The lca1Δ over-expressing AtLPCATs was used to asses Zn^2+ effect. The reactions contained 25 μM palmitoyl-LPC (1.35 nCi/nmol), 20 μg microsomal proteins, 0.1 M HEPES (pH 7.4), 25 μM stearyl-CoA and indicated concentration of ZnCl2.
(§2) AtLPCAT substrate specificity was determined by counting incorporation of 14C-labeled lysophosphatidylcholine or 14C-labeled palmitoyl-CoA into phosphatidylcholine. All assays were performed at least twice. […] reaction mixture contained […] microsomal protein, […] acyl-CoA and […], pH7.4. 14C-lysophosphatidylcholine (1.4 nCi/nmol) or 14C-palmityl-CoA (5.5 nCi/nmol) was used to assess fatty-CoA or lyso-lipid substrate specificity. Reaction was allowed for ten minutes at 30° C. All radiolabel chemicals for these assays were purchased from ARC, Inc.

AtLPCAT2 = target: T3, AtLPCAT2 (Arabidopsis thaliana, UniProt Q9CAN8); assay: Zn^2+ sensitivity of AtLPCAT2, in vitro LPCAT assay; settings: increasing ZnCl2; 25 μM palmitoyl-LPC, 25 μM stearyl-CoA, 20 μg microsomal protein, pH 7.4
T3 construct: made in house; host or cells: S. cerevisiae YOR175c deletion strain BY02431 (lca1Δ), pYES2.1 TOPO, galactose induction; microsomal protein
T3 sequence (Q9CAN8 1-465): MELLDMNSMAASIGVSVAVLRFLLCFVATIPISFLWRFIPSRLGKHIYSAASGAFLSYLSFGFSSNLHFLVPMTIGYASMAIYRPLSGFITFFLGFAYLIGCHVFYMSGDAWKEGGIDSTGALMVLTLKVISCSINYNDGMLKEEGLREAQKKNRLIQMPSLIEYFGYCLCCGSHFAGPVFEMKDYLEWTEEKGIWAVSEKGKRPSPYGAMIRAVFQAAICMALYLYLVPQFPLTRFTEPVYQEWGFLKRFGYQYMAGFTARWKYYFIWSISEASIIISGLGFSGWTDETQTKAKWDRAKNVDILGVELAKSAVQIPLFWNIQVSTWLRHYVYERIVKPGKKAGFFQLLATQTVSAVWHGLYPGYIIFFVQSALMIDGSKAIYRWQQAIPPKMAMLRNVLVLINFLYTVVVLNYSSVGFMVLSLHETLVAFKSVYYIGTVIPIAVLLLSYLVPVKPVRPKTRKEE
Method: as §1, §2

## [Cl-].[Cl-].[Zn+2] [ZnCl2]
LCA1
  Concentration at which the maximum increase of LPCAT activity was observed: 25 µM
LCA1; 5 μM ZnCl2
  LPCAT activity (% control): 98 ± 5.9 % control
LCA1; 10 μM ZnCl2
  LPCAT activity (% control): 136.8 ± 3.9 % control
LCA1; 25 μM ZnCl2
  LPCAT activity (% control): 149.7 ± 12.0 % control
LCA1; 0.1 mM ZnCl2
  LPCAT activity (% control): 35 ± 22.4 % control
LCA1; 20 mM ZnCl2
  LPCAT activity (% control): 6 ± 2.0 % control
LCA1; lower (10-25 μM) concentration
  Effect on LPCAT activity of LCA1: enhanced LPCAT activity
LCA1; range between 0.1 mM to 20 mM
  Effect on LPCAT activity of LCA1: significant reduction
AtLPCAT1
  AtLPCAT1 activity with Zn^2+ added: decreased with increasing concentration
AtLPCAT2
  AtLPCAT2 activity with Zn^2+ added: decreased with increasing concentration
